Assay results published in patent publication US20130143929A1, “FUNGICIDAL IMIDAZOLES” (EI DU PONT DE NEMOURS AND COMPANY, priority 2010, published 2013).
Marks after values point to notes of the source that are not given here.

Columns and labels:
Assay type in all cases: in vivo
Details in all cases: 100 = 100% disease control
[1] = tested on: Blumeria graminis f. sp. tritici (also known as Erysiphe graminis f. sp. tritici, the causal agent of wheat powdery mildew); assay: Test D: wheat powdery mildew, preventive spray on wheat seedlings, visual disease rating
In short: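 Preventive test: seedlings sprayed to run-off and inoculated with powdery mildew spores one day later. Suspensions were made in 50/50 acetone/water with 250 ppm Trem 014 surfactant (200 ppm equals 800 g/ha). Visual ratings after 8 days at 20 °C give percent disease control versus controls.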

[2] = tested on: Septoria tritici (the causal agent of wheat leaf blotch); assay: Test B: wheat leaf blotch, preventive spray on wheat seedlings, visual disease rating
In short: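 Preventive test: Septoria tritici spores applied one day after run-off spraying of seedlings (200 ppm equals 800 g/ha; some tests 40 ppm). After 48 h at 24 °C saturated atmosphere and 19 days at 20 °C, disease scored visually as % control relative to untreated plants.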

[3] = tested on: Botrytis cinerea (the causal agent of tomato Botrytis); assay: Test C: tomato Botrytis, preventive spray on tomato seedlings, visual disease rating
In short: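 Preventive test: B. cinerea spore inoculation one day after tomato seedlings were sprayed to run-off with compound suspended in 50/50 acetone–water plus 250 ppm surfactant. Plants held 48 h at 20° C in saturated air, then 3 days at 24° C; visual ratings scored 100 (full control) to 0 versus controls; some entries used 40 ppm.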

[4] = tested on: Puccinia recondite f. sp. tritici (the causal agent of wheat leaf rust); assay: Test A: wheat leaf rust, preventive spray on wheat seedlings, visual disease rating
In short: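 This was a preventive test: Puccinia recondite f. sp. tritici inoculum was applied one day after compound spray to run-off. Test suspensions were made in 50/50 acetone/water with 250 ppm surfactant, at 200 ppm (800 g/ha equivalent) or 40 ppm. Visual ratings of % disease control relative to controls were made after 24 h of saturated humidity and 7 growth-chamber days, all at 20° C.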

[5] = asterisk: 40 ppm test suspension, 0 = no control
[6] = no asterisk: standard test suspension concentration, 0 = no control relative to controls

COc1cc(F)c(-n2c(C)nc(Br)c2C(O)c2ccc(F)cc2Cl)c(F)c1 (stereo not drawn) [compound 392]
Test D rating (% disease control, wheat powdery mildew) [1, 5]: 0* % | Test B rating (% disease control, wheat leaf blotch) [2, 5]: 100* % | Test C rating (% disease control, tomato Botrytis) [3, 5]: 0* % | Test A rating (% disease control, wheat leaf rust) [4, 5]: 99* %

Cc1nc(Br)c(C(O)c2ccc(F)cc2F)n1-c1c(F)cccc1Br (stereo not drawn) [compound 393]
Test D rating (% disease control, wheat powdery mildew) [1, 6]: 97% | Test B rating (% disease control, wheat leaf blotch) [2, 6]: 100% | Test C rating (% disease control, tomato Botrytis) [3, 6]: 100% | Test A rating (% disease control, wheat leaf rust) [4, 6]: 100%

Cc1nc(Br)c(C(O)c2ccc(F)cc2F)n1-c1c(F)cc(F)cc1Br (stereo not drawn) [compound 394]
Test D rating (% disease control, wheat powdery mildew) [1, 6]: 72% | Test B rating (% disease control, wheat leaf blotch) [2, 6]: 100% | Test C rating (% disease control, tomato Botrytis) [3, 6]: 100% | Test A rating (% disease control, wheat leaf rust) [4, 6]: 100%

Cc1cc(F)ccc1C(O)c1cnc(C)n1-c1ccc(F)cc1Cl (stereo not drawn) [compound 395]
Test D rating (% disease control, wheat powdery mildew) [1, 6]: 35% | Test B rating (% disease control, wheat leaf blotch) [2, 6]: 100% | Test C rating (% disease control, tomato Botrytis) [3, 6]: 21% | Test A rating (% disease control, wheat leaf rust) [4, 6]: 99%

Cc1ncc(C(O)c2ccc(F)cc2F)n1-c1ccc(F)cc1Cl (stereo not drawn) [compound 396]
Test D rating (% disease control, wheat powdery mildew) [1, 6]: 0% | Test B rating (% disease control, wheat leaf blotch) [2, 6]: 100% | Test C rating (% disease control, tomato Botrytis) [3, 6]: 87% | Test A rating (% disease control, wheat leaf rust) [4, 6]: 100%

Cc1cc(F)ccc1C(O)c1c(Br)nc(C)n1-c1ccc(F)cc1Cl (stereo not drawn) [compound 397]
Test D rating (% disease control, wheat powdery mildew) [1, 6]: 73% | Test B rating (% disease control, wheat leaf blotch) [2, 6]: 100% | Test C rating (% disease control, tomato Botrytis) [3, 6]: 100% | Test A rating (% disease control, wheat leaf rust) [4, 6]: 100%

Cc1cc(F)ccc1C(O)c1c(Cl)nc(C)n1-c1ccc(F)cc1Cl (stereo not drawn) [compound 398]
Test D rating (% disease control, wheat powdery mildew) [1, 6]: 0% | Test B rating (% disease control, wheat leaf blotch) [2, 6]: 100% | Test C rating (% disease control, tomato Botrytis) [3, 6]: 46% | Test A rating (% disease control, wheat leaf rust) [4, 6]: 100%

Cc1nc(Br)c(C(O)c2ccc(F)cc2F)n1-c1ccc(F)cc1Cl (stereo not drawn) [compound 399]
Test D rating (% disease control, wheat powdery mildew) [1, 6]: 90% | Test B rating (% disease control, wheat leaf blotch) [2, 6]: 100% | Test C rating (% disease control, tomato Botrytis) [3, 6]: 99% | Test A rating (% disease control, wheat leaf rust) [4, 6]: 100%

Cc1nc(Br)c(C(O)c2ccc(F)cc2F)n1-c1c(F)cccc1Cl (stereo not drawn) [compound 400]
Test D rating (% disease control, wheat powdery mildew) [1, 5]: 100* % | Test B rating (% disease control, wheat leaf blotch) [2, 5]: 100* % | Test C rating (% disease control, tomato Botrytis) [3, 5]: 100* % | Test A rating (% disease control, wheat leaf rust) [4, 5]: 100* %

COc1cc(F)c(-n2c(C)nc(Cl)c2C(O)c2ccc(F)cc2Cl)c(F)c1 (stereo not drawn) [compound 403]
Test D rating (% disease control, wheat powdery mildew) [1, 5]: 0* % | Test B rating (% disease control, wheat leaf blotch) [2, 5]: 100* % | Test C rating (% disease control, tomato Botrytis) [3, 5]: 8* % | Test A rating (% disease control, wheat leaf rust) [4, 5]: 99* %

Cc1cc(F)ccc1C(O)c1cnc(C)n1-c1c(F)cccc1Br (stereo not drawn) [compound 405]
Test D rating (% disease control, wheat powdery mildew) [1, 6]: 0% | Test B rating (% disease control, wheat leaf blotch) [2, 6]: 94% | Test C rating (% disease control, tomato Botrytis) [3, 6]: 9% | Test A rating (% disease control, wheat leaf rust) [4, 6]: 99%

Cc1cc(F)ccc1C(O)c1c(Br)nc(C)n1-c1c(F)cccc1Br (stereo not drawn) [compound 406]
Test D rating (% disease control, wheat powdery mildew) [1, 6]: 56% | Test B rating (% disease control, wheat leaf blotch) [2, 6]: 100% | Test C rating (% disease control, tomato Botrytis) [3, 6]: 43% | Test A rating (% disease control, wheat leaf rust) [4, 6]: 100%

Cc1cc(F)ccc1C(O)c1c(Cl)nc(C)n1-c1c(F)cccc1Br (stereo not drawn) [compound 407]
Test D rating (% disease control, wheat powdery mildew) [1, 6]: 0% | Test B rating (% disease control, wheat leaf blotch) [2, 6]: 100% | Test C rating (% disease control, tomato Botrytis) [3, 6]: 52% | Test A rating (% disease control, wheat leaf rust) [4, 6]: 99%

Cc1cc(F)ccc1C(O)c1c(Br)nc(C)n1-c1c(F)cc(F)cc1Br (stereo not drawn) [compound 408]
Test D rating (% disease control, wheat powdery mildew) [1, 6]: 56% | Test B rating (% disease control, wheat leaf blotch) [2, 6]: 100% | Test C rating (% disease control, tomato Botrytis) [3, 6]: 99% | Test A rating (% disease control, wheat leaf rust) [4, 6]: 100%

Cc1ncc(C(O)c2ccc(F)cc2F)n1-c1c(F)cccc1Br (stereo not drawn) [compound 409]
Test D rating (% disease control, wheat powdery mildew) [1, 6]: 0% | Test B rating (% disease control, wheat leaf blotch) [2, 6]: 100% | Test C rating (% disease control, tomato Botrytis) [3, 6]: 57% | Test A rating (% disease control, wheat leaf rust) [4, 6]: 99%

Cc1ncc(C(O)c2ccc(F)cc2F)n1-c1c(F)cc(F)cc1Br (stereo not drawn) [compound 410]
Test D rating (% disease control, wheat powdery mildew) [1, 6]: 13% | Test B rating (% disease control, wheat leaf blotch) [2, 6]: 100% | Test C rating (% disease control, tomato Botrytis) [3, 6]: 97% | Test A rating (% disease control, wheat leaf rust) [4, 6]: 100%

COc1cc(F)c(-n2c(C)nc(Cl)c2C(O)c2ccc(F)cc2F)c(F)c1 (stereo not drawn) [compound 411]
Test D rating (% disease control, wheat powdery mildew) [1, 5]: 50* % | Test B rating (% disease control, wheat leaf blotch) [2, 5]: 100* % | Test C rating (% disease control, tomato Botrytis) [3, 5]: 85* % | Test A rating (% disease control, wheat leaf rust) [4, 5]: 100* %

COc1cc(F)c(-n2c(C)nc(Br)c2C(O)c2ccc(F)cc2F)c(F)c1 (stereo not drawn) [compound 412]
Test D rating (% disease control, wheat powdery mildew) [1, 5]: 0* % | Test B rating (% disease control, wheat leaf blotch) [2, 5]: 100* % | Test C rating (% disease control, tomato Botrytis) [3, 5]: 0* % | Test A rating (% disease control, wheat leaf rust) [4, 5]: 100* %

Cc1ncc(C(O)c2cccnc2F)n1-c1c(F)cc(F)cc1F (stereo not drawn) [compound 413]
Test D rating (% disease control, wheat powdery mildew) [1, 6]: 0% | Test B rating (% disease control, wheat leaf blotch) [2, 6]: 98% | Test C rating (% disease control, tomato Botrytis) [3, 6]: 0% | Test A rating (% disease control, wheat leaf rust) [4, 6]: 88%

Cc1nc(Br)c(C(O)c2cccnc2F)n1-c1c(F)cc(F)cc1F (stereo not drawn) [compound 414]
Test D rating (% disease control, wheat powdery mildew) [1, 6]: 13% | Test B rating (% disease control, wheat leaf blotch) [2, 6]: 100% | Test C rating (% disease control, tomato Botrytis) [3, 6]: 67% | Test A rating (% disease control, wheat leaf rust) [4, 6]: 100%

Cc1cc(F)ccc1C(O)c1cnc(C)n1-c1ccc(F)cc1F (stereo not drawn) [compound 415]
Test D rating (% disease control, wheat powdery mildew) [1, 6]: 0% | Test B rating (% disease control, wheat leaf blotch) [2, 6]: 18% | Test C rating (% disease control, tomato Botrytis) [3, 6]: 0% | Test A rating (% disease control, wheat leaf rust) [4, 6]: 74%
